Assay results taken from ChEMBL document CHEMBL4808240, “Design, synthesis and analysis of novel sphingosine kinase-1 inhibitors to improve oral bioavailability” (Bioorg Med Chem Lett, 2021).

What follows are compounds tested against Sphingosine kinase 1 (Homo sapiens, UniProt Q9NYA1) (assay: Inhibition of recombinant full length GST-tagged human SPHK1 expressed in baculovirus expression system incubated for 1 hr in presence of ATP by Alexa Fluor 647 tracer based Adapta assay).
Sphingosine kinase 1, sequence (Q9NYA1 whole entry): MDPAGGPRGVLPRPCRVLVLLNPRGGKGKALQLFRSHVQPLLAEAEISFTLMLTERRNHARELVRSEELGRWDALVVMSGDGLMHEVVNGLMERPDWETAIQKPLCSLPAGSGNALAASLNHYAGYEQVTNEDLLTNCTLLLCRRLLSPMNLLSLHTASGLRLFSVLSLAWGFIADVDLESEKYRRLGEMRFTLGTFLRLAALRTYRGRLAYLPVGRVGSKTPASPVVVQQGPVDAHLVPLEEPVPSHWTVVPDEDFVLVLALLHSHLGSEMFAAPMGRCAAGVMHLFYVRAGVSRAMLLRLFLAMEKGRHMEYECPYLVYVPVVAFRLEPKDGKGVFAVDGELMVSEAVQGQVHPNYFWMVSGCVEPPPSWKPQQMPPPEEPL

**Q.** Which IC50 does the source give for `COc1ccc(/C=N/NC(=O)c2cc(-c3ccc4ccccc4c3)[nH]n2)cc1OC` here?
**A.** 6.55 µM

**Q.** For `O=C(N/N=C/c1ccccc1O)c1cc(-c2ccc3ccccc3c2)n[nH]1`, which IC50 is on record?
**A.** > 10 µM

**Q.** For `COc1ccc2ccccc2c1/C=N/NC(=O)c1cc(-c2ccc3ccccc3c2)[nH]n1`, which IC50 is on record?
**A.** > 10 µM

**Q.** With `COc1cccc(/C=N/NC(=O)c2cc(-c3ccc4ccccc4c3)[nH]n2)c1` as the compound, how does the IC50 read?
**A.** > 10 µM

**Q.** How did the IC50 turn out when `O=C(N/N=C/c1cccnc1)c1cc(-c2ccc3ccccc3c2)[nH]n1` was run?
**A.** > 10 µM

**Q.** `O=C(N/N=C/C1CCCCC1)c1cc(-c2ccc3ccccc3c2)[nH]n1` was tested. Which IC50 did it give?
**A.** > 10 µM

**Q.** `O=C(N/N=C/c1ccccc1)c1cc(-c2ccc3ccccc3c2)[nH]n1` was tested. Which IC50 did it give?
**A.** > 10 µM

**Q.** With `COc1ccc(/C=N/NC(=O)c2cc(-c3ccc4ccccc4c3)[nH]n2)cc1` as the compound, how does the IC50 read?
**A.** > 10 µM

**Q.** With `O=C(N/N=C/c1cccc([N+](=O)[O-])c1)c1cc(-c2ccc3ccccc3c2)[nH]n1` as the compound, how does the IC50 read?
**A.** > 10 µM

**Q.** Which IC50 does the source give for `O=C(N/N=C/c1ccc(Cl)cc1)c1cc(-c2ccc3ccccc3c2)[nH]n1` here?
**A.** > 10 µM

**Q.** Which IC50 does the source give for `O=C(N/N=C/c1ccc2c(c1)OCCO2)c1cc(-c2ccc3ccccc3c2)[nH]n1` here?
**A.** > 10 µM

**Q.** How did the IC50 turn out when `COc1ccccc1/C=N/NC(=O)c1cc(-c2ccc3ccccc3c2)[nH]n1` was run?
**A.** > 10 µM

**Q.** `O=C(N/N=C/c1c(O)ccc2ccccc12)c1cc(-c2ccc3ccccc3c2)n[nH]1` was tested. Which IC50 did it give?
**A.** > 10 µM

**Q.** For `O=C(N/N=C/c1cccc2ccccc12)c1cc(-c2ccc3ccccc3c2)[nH]n1`, which IC50 is on record?
**A.** > 10 µM

**Q.** Which IC50 does the source give for `O=C(N/N=C/c1ccc(O)cc1)c1cc(-c2ccc3ccccc3c2)n[nH]1` here?
**A.** > 10 µM

**Q.** How did the IC50 turn out when `O=C(N/N=C/c1cccc(O)c1)c1cc(-c2ccc3ccccc3c2)n[nH]1` was run?
**A.** > 10 µM
